From PubChem BioAssay (NCI)
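Following 48 hours of exposure in 96-well plates, responses at five concentrations were used to interpolate endpoints linearly. TGI: total growth inhibition.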

Tests used:
Test in all cases: NCI-60 cell line screen, 48 h
UACC-257 melanoma = system: UACC-257 melanoma
SN12C renal = system: SN12C renal
A498 renal = system: A498 renal
RPMI-8226 leukemia = system: RPMI-8226 leukemia
MCF7 breast = system: MCF7 breast
UO-31 renal = system: UO-31 renal
SNB-19 CNS = system: SNB-19 CNS
BT-549 breast = system: BT-549 breast
SF-539 CNS = system: SF-539 CNS
OVCAR-5 ovarian = system: OVCAR-5 ovarian
CAKI-1 renal = system: CAKI-1 renal
PC-3 prostate = system: PC-3 prostate
HOP-92 NSCLC = system: HOP-92 NSCLC
MDA-N = system: MDA-N
HCC-2998 colon = system: HCC-2998 colon
OVCAR-8 ovarian = system: OVCAR-8 ovarian
SR leukemia = system: SR leukemia
NCI-H226 lung = system: NCI-H226 lung
HS 578T breast = system: HS 578T breast
SK-OV-3 ovarian = system: SK-OV-3 ovarian
MALME-3M melanoma = system: MALME-3M melanoma
EKVX NSCLC = system: EKVX NSCLC
NCI-H23 lung = system: NCI-H23 lung
SK-MEL-5 melanoma = system: SK-MEL-5 melanoma
SF-295 CNS = system: SF-295 CNS
CCRF-CEM leukemia = system: CCRF-CEM leukemia
SW-620 colon = system: SW-620 colon
MOLT-4 leukemia = system: MOLT-4 leukemia
T-47D breast = system: T-47D breast
DU-145 prostate = system: DU-145 prostate
M14 melanoma = system: M14 melanoma
SK-MEL-28 melanoma = system: SK-MEL-28 melanoma
MDA-MB-231 breast = system: MDA-MB-231 breast
LOX IMVI melanoma = system: LOX IMVI melanoma
786-0 renal = system: 786-0 renal
NCI-H460 lung = system: NCI-H460 lung
OVCAR-3 ovarian = system: OVCAR-3 ovarian
NCI-H522 lung = system: NCI-H522 lung
HCT-15 colon = system: HCT-15 colon
U251 CNS = system: U251 CNS
COLO 205 colon = system: COLO 205 colon
MDA-MB-435 = system: MDA-MB-435
SF-268 CNS = system: SF-268 CNS
RXF 393 renal = system: RXF 393 renal
HCT-116 colon = system: HCT-116 colon
HT29 colon = system: HT29 colon
ACHN renal = system: ACHN renal
HOP-62 NSCLC = system: HOP-62 NSCLC
NCI/ADR-RES ovarian = system: NCI/ADR-RES ovarian
UACC-62 melanoma = system: UACC-62 melanoma
SNB-75 CNS = system: SNB-75 CNS
HL-60(TB) leukemia = system: HL-60(TB) leukemia
SK-MEL-2 melanoma = system: SK-MEL-2 melanoma
TK-10 renal = system: TK-10 renal
OVCAR-4 ovarian = system: OVCAR-4 ovarian
K-562 leukemia = system: K-562 leukemia
KM12 colon = system: KM12 colon
A549 NSCLC = system: A549 NSCLC
IGROV1 ovarian = system: IGROV1 ovarian

CC(C)Oc1c(N(Cc2ccccc2)c2ccccc2C2SCCCS2)c(=O)c1=O
TGI (UACC-257 melanoma): > 100 µM | TGI (SN12C renal): > 100 µM | TGI (A498 renal): > 85.1 µM | TGI (RPMI-8226 leukemia): > 100 µM | TGI (MCF7 breast): > 100 µM | TGI (UO-31 renal): > 100 µM | TGI (SNB-19 CNS): > 100 µM | TGI (BT-549 breast): > 100 µM | TGI (SF-539 CNS): 8 µM | TGI (OVCAR-5 ovarian): > 100 µM | TGI (CAKI-1 renal): > 100 µM | TGI (PC-3 prostate): 35.7 µM | TGI (HOP-92 NSCLC): > 83.3 µM | TGI (MDA-N): > 30.7 µM | TGI (HCC-2998 colon): 18.5 µM | TGI (OVCAR-8 ovarian): > 60.7 µM | TGI (SR leukemia): > 100 µM | TGI (NCI-H226 lung): > 28.2 µM | TGI (HS 578T breast): 32.6 µM | TGI (SK-OV-3 ovarian): > 73.4 µM | TGI (MALME-3M melanoma): > 100 µM | TGI (EKVX NSCLC): > 100 µM | TGI (NCI-H23 lung): > 47.5 µM | TGI (SK-MEL-5 melanoma): > 100 µM | TGI (SF-295 CNS): 5.67 µM | TGI (CCRF-CEM leukemia): > 100 µM | TGI (SW-620 colon): 8.2 µM | TGI (MOLT-4 leukemia): > 100 µM | TGI (T-47D breast): > 100 µM | TGI (DU-145 prostate): > 100 µM | TGI (M14 melanoma): 19.3 µM | TGI (SK-MEL-28 melanoma): > 100 µM | TGI (MDA-MB-231 breast): > 56 µM | TGI (LOX IMVI melanoma): > 100 µM | TGI (786-0 renal): > 100 µM | TGI (NCI-H460 lung): > 60.8 µM | TGI (OVCAR-3 ovarian): 7.07 µM | TGI (NCI-H522 lung): 4.87 µM | TGI (HCT-15 colon): > 56.5 µM | TGI (U251 CNS): > 100 µM | TGI (COLO 205 colon): 21.5 µM | TGI (MDA-MB-435): 10.3 µM | TGI (SF-268 CNS): > 100 µM | TGI (RXF 393 renal): > 100 µM | TGI (HCT-116 colon): 59.3 µM | TGI (HT29 colon): 6.78 µM | TGI (ACHN renal): > 100 µM | TGI (HOP-62 NSCLC): > 100 µM | TGI (NCI/ADR-RES ovarian): 4.7 µM | TGI (UACC-62 melanoma): > 100 µM | TGI (SNB-75 CNS): 7.22 µM | TGI (HL-60(TB) leukemia): > 100 µM | TGI (SK-MEL-2 melanoma): 20.1 µM | TGI (TK-10 renal): > 100 µM | TGI (OVCAR-4 ovarian): > 100 µM | TGI (K-562 leukemia): > 100 µM | TGI (KM12 colon): 35.9 µM | TGI (A549 NSCLC): > 100 µM | TGI (IGROV1 ovarian): > 32.8 µM

O=c1ssc2c1Nc1c(ssc1=O)S2
TGI (UACC-257 melanoma): 28.3 µM | TGI (SN12C renal): 28.1 µM | TGI (A498 renal): 24.7 µM | TGI (RPMI-8226 leukemia): 21.1 µM | TGI (MCF7 breast): 39.2 µM | TGI (UO-31 renal): 24.4 µM | TGI (SNB-19 CNS): 34.7 µM | TGI (BT-549 breast): 52.5 µM | TGI (SF-539 CNS): 21.5 µM | TGI (OVCAR-5 ovarian): 32.4 µM | TGI (CAKI-1 renal): 33.3 µM | TGI (PC-3 prostate): 25.5 µM | TGI (HOP-92 NSCLC): 28.7 µM | TGI (MDA-N): 31.9 µM | TGI (HCC-2998 colon): 29.4 µM | TGI (OVCAR-8 ovarian): 28.6 µM | TGI (SR leukemia): 5.49 µM | TGI (NCI-H226 lung): 46.5 µM | TGI (HS 578T breast): > 100 µM | TGI (SK-OV-3 ovarian): 36.3 µM | TGI (MALME-3M melanoma): 22.4 µM | TGI (EKVX NSCLC): 30 µM | TGI (NCI-H23 lung): 35.3 µM | TGI (SK-MEL-5 melanoma): 29.4 µM | TGI (SF-295 CNS): 74.7 µM | TGI (CCRF-CEM leukemia): 6.8 µM | TGI (SW-620 colon): 31.1 µM | TGI (MOLT-4 leukemia): 28.4 µM | TGI (T-47D breast): 26.2 µM | TGI (DU-145 prostate): 26.2 µM | TGI (M14 melanoma): 27.2 µM | TGI (SK-MEL-28 melanoma): 34.2 µM | TGI (MDA-MB-231 breast): 57.3 µM | TGI (LOX IMVI melanoma): 24.3 µM | TGI (786-0 renal): 14.5 µM | TGI (NCI-H460 lung): 36.4 µM | TGI (OVCAR-3 ovarian): 32.4 µM | TGI (NCI-H522 lung): 37.4 µM | TGI (HCT-15 colon): 41.3 µM | TGI (U251 CNS): 33.3 µM | TGI (COLO 205 colon): 36.4 µM | TGI (MDA-MB-435): 33.5 µM | TGI (SF-268 CNS): 33.5 µM | TGI (RXF 393 renal): 17.4 µM | TGI (HCT-116 colon): 31.2 µM | TGI (HT29 colon): 73.8 µM | TGI (ACHN renal): 30.2 µM | TGI (HOP-62 NSCLC): 36.4 µM | TGI (NCI/ADR-RES ovarian): 37.4 µM | TGI (UACC-62 melanoma): 27.3 µM | TGI (SNB-75 CNS): 30.2 µM | TGI (HL-60(TB) leukemia): 15.5 µM | TGI (SK-MEL-2 melanoma): 32.1 µM | TGI (TK-10 renal): 29.5 µM | TGI (OVCAR-4 ovarian): 28.2 µM | TGI (K-562 leukemia): 25.2 µM | TGI (KM12 colon): 28.6 µM | TGI (A549 NSCLC): 41 µM | TGI (IGROV1 ovarian): 26.4 µM
